Experimental data as given in patent publication US11420962B2, “Indene derivatives useful in treating pain and inflammation” (TARO PHARMACEUTICALS INC., priority 2018, dated 2022).

Columns and labels:
[1] = system: Rats (male, Sprague-Dawley); assay: TNBS colitis assay in rats; format: in vivo; conditions: 30 mg/kg dose, PO, QD for 7 days
Description: TNBS Colitis Assay of Representative Compounds in Rats Rats (male, Sprague-Dawley) were anaesthetized and a solution of TNBS (48 mg/kg) in ethanol, was instilled intra-rectally to induce colitis, 1 h after oral dosing of representative compounds of the invention (i.e., test compounds). Test compounds were dosed PO, QD for 7 days, using prednisolone as a reference standard. […] On Day 7, rats were euthanized and the colon was evaluated for length, weight, wall thickness, ulcer number and length and for the presence of adhesions and strictures. A colonic score was calculated based on the severity of the colonic parameters.

Mice (male, C57Bl/6) = assay: Bleomycin lung fibrosis; format: in vivo
From the text: Mice (male, C57BL/6) were randomized into treatment groups and fibrosis was induced by intratracheal administration of bleomycin. Treatment with representative compounds of the invention (i.e., test compounds) or reference standard (pirfenidone) was initiated on Day −1 and administered daily unto Day 7 or Day 21. For groups undergoing bronchoalveolar lavage (BAL), the trachea was cannulated and infused with ice cold Hank's Balanced Salt Solution (HBSS, pH 7.2). The collected lavage fluid was analyzed for cell numbers (total and differential counts) and levels of soluble TGFβ and collagen. For other groups, the lungs were either snap-frozen or formalin-fixed for further analyses.

[2] = system: Rats (male, Sprague-Dawley); assay: Spinal nerve ligation (neuropathic pain); format: in vivo
From the text: Rats (male, Sprague-Dawley) were anaesthetized and placed in a prone position and the left paraspinal muscles were separated from the spinous processes at the L6-S2 levels. The L6 transverse process was carefully removed to visually identify the L4-L6 spinal nerves. The left L5 spinal nerves were isolated and tightly ligated with 6-0 silk thread. The skin was sutured to close the open tissue and animals were allowed to recover for 1 week before pain assessment. Basal readings for mechanical allodynia and thermal hyperalgesia were performed using a dynamic plantar aesthesiometer and plantar test surface, respectively, before surgery. On Day 7 following surgery, mechanical allodynia and thermal hyperalgesia were assessed and animals were randomized into treatment groups based on these baseline readings. […] Thermal hyperalgesia and mechanical allodynia were tested at 0, 60 and 120 minutes post administration of compounds on Days 7 and 14.

[3] = system: female Sprague-Dawley rats; assay: Cyclophosphamide-induced cystitis in rats (visceral pain); format: in vivo; conditions: 0.3 to 1.0 mg/kg dose, oral gavage four days; 4 h after cyclophosphamide
Description: Representative compounds of the invention (i.e., test compounds) were administered to female Sprague-Dawley rats, for four days by oral gavage in 0.9% saline. Two hours after the fourth dose, the rats were challenged by intraperitoneal administration of cyclophosphamide (150 mg/kg). Referred mechanical sensitivity was measured four hours later by applying a series of eight von Frey filaments to the lower abdomen, three times each for 1-2 seconds with a 5 second interval between applications. Responses were scored (zero-no response; one-response, two-response and change of position, and three-response, change of position and licking the site or vocalization), totaled and the percent of maximal possible nociceptive score calculated. Ibuprofen was used as a reference standard.

Human DRG = assay: Human dorsal root ganglion (DRG) excitability response; format: cell-based; conditions: Table 6; Biological Example 3, human DRG; read-out: Scoring (IC50)
Description: Human DRGs are transferred into a dissection vessel containing a cold (4° C.), fresh proprietary dissection solution. DRGs are maintained completely submerged in dissection solution followed by dissection by an appropriate method.
Cells are plated into a 96 well plate. Calcium dye (Fluo 8-AM) is loaded in each well for a period of 20 to 25 min, maintaining temperature at ambient. The baseline excitability profile (ability of firing action potentials) of the cells is assessed at both low and high threshold stimulations using optical EFS. Following baseline profiling, cells are subjected to test compounds.
Representative compounds of the invention (i.e., test compounds) are added to cells and the cells are stimulated (using EFS) to induce action potentials at regular intervals, according to the parameters outlined in Table 5. Four concentrations of each compound are utilized and directly injected into separate wells to allow for determination of a dose response (IC50). At the end of the protocol, the nociceptor positive control compound (capsaicin) is perfused into the cells at 200 nM and signal recorded. […]
Recordings are performed in stream mode at 100 Hz for the EFS portion of the above protocol and in time lapse model at 0.2 Hz for the final step utilizing capsaicin. For each concentration tested, the number of cells blocked vs baseline will be counted at different thresholds. […]

rats (male, Wistar) = assay: Rat monosodium iodoacetate-induced osteoarthritis; format: in vivo; conditions: for reduction difference in weight bearing as compared to the vehicle: PO, QD
Description: Representative compounds of the invention (i.e., test compounds) were administered to rats (male, Wistar) PO, QD, at 3 or 30 mg/kg, starting on Day 0 through to Day 21 of the study. Osteoarthritis was modeled by intra-articular injection of 3 mg of monosodium iodoacetate (MIA) in the right knee. Knee swelling, paw withdrawal threshold (mechanical allodynia) and the difference in weight bearing were measured on Day 0 (pre-induction) and on Days 3, 7, 14 and 21 post-MIA injection. Tramadol was used as a reference standard.

C=C1CC[C@H]2[C@H](CN)[C@@H]([C@@]3(C)Cc4cn[nH]c4C[C@@H]3CO)CC[C@]12C [Ia-1, ((5R,6S)-5-((3aS,4R,5S,7aS)-4-(aminomethyl)-7a-methyl-1-methyleneoctahydro-1H-inden-5-yl)-5-methyl-4,5,6,7-tetrahydro-1H-indazol-6-yl)methanol]
inhibition of the colonic score [1]: 36% | reduction in BAL macrophages as compared to the vehicle (Mice (male, C57Bl/6); Day 7, 3.0 mg/kg dose): 41% | reduction in BAL macrophages as compared to the vehicle (Mice (male, C57Bl/6); Day 7, 30 mg/kg dose): 35% | reduction in fibrosis (Mice (male, C57Bl/6); Day 14, 30 mg/kg dose (first mention)): 31% | reduction in fibrosis (Mice (male, C57Bl/6); Day 14, 30 mg/kg dose (second mention)): 34% | overall increase in paw withdrawal threshold as compared to the vehicle ([2]; 3 mg/kg): 48% | overall increase in paw withdrawal threshold as compared to the vehicle ([2]; 10 mg/kg): 62% | overall increase in paw withdrawal threshold as compared to the vehicle ([2]; 30 mg/kg): 82% | nociceptive threshold, % of baseline (pre-challenge) levels [3]: 70-91% | IC50 (Human DRG): < 2 µM | reduction difference in weight bearing as compared to the vehicle (rats (male, Wistar); 3.0 mg/kg dose): 50% | reduction difference in weight bearing as compared to the vehicle (rats (male, Wistar); 30 mg/kg): 57% | reduction in knee diameter as compared to the vehicle (rats (male, Wistar); Day 3, 3.0 mg/kg): 23% | reduction in knee diameter as compared to the vehicle (rats (male, Wistar); Day 3, 30 mg/kg): 43%
